The target in data set [1] is T1, ALK(G1202R/L1196M) (Homo sapiens, UniProt Q9UM73, G1202R/L1196M).
T1 construct: purchased Carna
The data set can be described thus: In vitro kinase inhibitory activity assay, Experimental method 2 (ADP-Glo). Type of data set: biochemical. The settings on record: Experimental method 2; ATP 5.0 µM, substrate IGF1; read-out: Kinase half maximal inhibitory concentration IC50 ALK^G1202R/L1196M. As to the method: (§1) The kinase inhibitory activity assays of the compounds against ALK, ALK^L1196M, ALK^G1202R, ALK^G1202R/L1196M, ROS1, and TRKB were conducted at Wuhan Heyan Biotechnology Co., Ltd. or Hefei PreceDo Biotechnology Co., Ltd.
(§2) Experimental materials: ALK (G1202R/L1196M) Active and TRKB were purchased from Carna; IGF1 was purchased from GenScript; PolyE4Y1 was purchased from SIGMA; ADP-Glo™ Reagent was purchased from Promega; ATP was purchased from Promega; Kinase Detection Reagent was purchased from Promega; microplate reader ( PerkinElmer).
Reaction system: ALK(G1202R/L1196M) reaction concentration 8.63 nM, ATP concentration 5.0 µM, substrate IGF1 concentration 0.2 µg/µL. ALK(G1202R/L1196M) kinase buffer was 40 mM Tris-HCl (pH 7.5) + 20 mM magnesium chloride + 0.1 mg/mL BSA + 50 µM DTT.
(§3) ALK(G1202R/L1196M) and TRKB detection method: 2 µL of kinase and 1 µL of compound were added to a 384-well plate; 2 µL of substrate/ATP mixture was added and incubated at room temperature in the dark for 60 minutes; 5 µL of ADP-Glo™ reagent was added and incubated at room temperature for 40 minutes; 10 µL of kinase detection reagent was added and incubated at room temperature for 30 minutes; the plate was read on a microplate reader, and luminescence was recorded (integration time set to 0.5 seconds).
(§4) The IC50 value could then be derived by performing a curve fit using a four-parameter logistic model (obtained using the "log(inhibitor) vs. response -- Variable slope" mode in GraphPad Prism).

In data set [2] the target is T2, TRKB (Homo sapiens, UniProt Q16620).
T2 construct: purchased Carna
The data set is described as above. It is filed as biochemical. The settings on record: Experimental method 2; ATP 5.0 µM, substrate PolyE4Y1; read-out: Kinase half maximal inhibitory concentration IC50 TRKB. As to the method: as §1, §2
TRKB reaction concentration 4.47 nM, ATP concentration 5.0 µM, substrate PolyE4Y1 concentration 0.2 µg/µL. TRKB kinase buffer was 40 mM Tris-HCl (pH 7.5) + 20 mM magnesium chloride + 2.5 mM manganese chloride + 0.1mg/mL BSA+ 50 µM DTT.
as §3, §4

Data set [3] relates to Ba/F3-EML4-ALK-G1202R/L1196M. As to the kind of experiment: Anti-proliferative activity test on Ba/F3 cell lines (CellTiter-Glo). Type of data set: cell-based. As to the method:
(§5) • (1) Cell culture: The cell lines were cultured in an incubator at 37°C with 5% CO2. Regular passaging was performed, and cells in the logarithmic growth phase were selected for plating; • (2) Preparation of compound storage plate: The test compounds were prepared into a 10 mM solution with DMSO (Stock Con.); The compounds were then prepared into a 1 mM solution with DMSO (Work Con.); 1 µL of the stock solution was mixed with 9 µL of DMSO to prepare a 10 µL work solution. • (3) Preparation of 1000× compound storage plate (tube): The compounds were 3-fold serially diluted from […] to the lowest concentration, for a total of 8 concentrations; • (4) Preparation of 20× compound working solution: 98 µL of cell culture medium was added to a flat-bottomed 96-well transparent drug plate. From the 1000× compound storage plate, 2 µL of the compound was pipetted into the cell culture medium in the 96-well transparent drug plate. In the solvent control, 2 µL of DMSO was added. After the compound or DMSO was added, the mixture was homogenized using a pipette. • (5) Cells were stained with trypan blue and viable cells were counted to ensure a cell viability of 90% or more. The cell concentration was adjusted to an appropriate concentration; • (6) 95 µL of cell suspension (2000 cells/well) was added to each well of the compound assay cell plate, and cell-free culture medium containing 0.1% DMSO was added to the Min control wells; • (7) Administration in the compound assay cell plate: 5 µL of 20× compound working solution was added to the cell culture plate, 5 µL of DMSO-cell culture medium mixture was added to the Max control wells, and the final concentration of DMSO was 0.1%; • (8) The culture plate was then incubated in an incubator at 37°C with 5% CO2 for 72 hours; • (9) The following operations were conducted in accordance with the instructions of the Promega CellTiter-Glo Luminescent Cell Viability Assay Kit (Promega-G7573): CellTiter-Glo buffer was thawed and brought to room temperature; CellTiter-Glo substrate was brought to room temperature; CellTiter-Glo buffer was added to a bottle of CellTiter-Glo substrate to dissolve the substrate, thereby preparing CellTiter-Glo working solution; The mixture was slowly vortexed and shaken to be fully dissolved; The cell culture plate was removed and allowed to equilibrate to room temperature for 10 minutes; 50 µL (equal to half the volume of cell culture medium in each well) of CellTiter-Glo working solution was added to each well; The culture plate was shaken on an orbital shaker for 2 minutes to induce cell lysis; The plate was then left at room temperature for 10 minutes to stabilize the luminescent signal; The luminescent signal was detected using a SpectraMax Paradigm plate reader; Cell viability assay was conducted using CellTiter-Glo luminescence method.
(§6) Data analysis: The corresponding […] value (RLU) for each well was obtained from SpectraMax Paradigm readings. […] The inhibition rates corresponding to compounds at different concentrations were calculated in Excel, and the inhibition rate curves were plotted using GraphPad Prism software to calculate relevant parameters, including the maximum and minimum inhibition rates of the cells and the IC50 value.
(Cellular ATP, detected with luciferase, serves as a proxy for viable cell number.)

For another data set, the system named is Ba/F3-TEL-TRKB. Described as above. Type of data set: cell-based. The settings on record: Mus musculus, BaF3; 72 hours; read-out: Half maximal inhibitory concentration IC50 for cells Ba/F3-TEL-TRKB. As to the method: as §5, §6
A short description of data set [4]: HMS CLint (liver) test, hepatocyte metabolic stability. Type of data set: in vitro ADME. The settings on record: 0.5 × 10^6 cells/mL, up to 90 minutes. As to the method: The metabolic stability of the compounds of the present disclosure was tested in human and mouse hepatocytes.
• (1) Test compound (10 mM); Control: 7-ethoxycoumarin (30 mM), 7-hydroxycoumarin (reference substance, 30 mM); • Mouse hepatocytes with cell viability of 73.8%, supplier Cat No.: BioreclamationIVTM005052; • Human hepatocytes with cell viability of 94.6%, supplier Cat No.: Bioreclamation IVTX008001. • (2) Buffer system: Thawing medium: Williams' medium E containing 5% fetal bovine serum, 30% Percoll solution, and other auxiliary materials.
Incubation medium: Williams' medium E (without phenol red) containing 2 mM L-glutamine and 25 mM 4-(2-hydroxyethyl)-1-piperazineethanesulfonic acid.
Stop solution: acetonitrile containing 200 ng/mL tolbutamide and labetalol as internal standard. […]
The residual rates of the test compound and the control compound were determined using the following formula: Residual rate (%) = (Peak area ratio of compound to internal standard at any time point)/(Peak area ratio of compound to internal standard at 0 minutes) × 100% [formula]
The elimination rate constant (k) of the test compound and the control compound in hepatocytes was calculated by plotting the logarithm of the residual rate against time. […]

Data set [5] deals with T1, ALK(G1202R/L1196M). As to the kind of experiment: In vitro kinase inhibitory activity assay, Experimental method 1 (ADP-Glo). Type of data set: biochemical. The settings on record: final ATP 50 µM, read-out: Kinase half maximal inhibitory concentration IC50 ALK^G1202R/L1196M. The method, then: as §1
(§7) Experimental materials: ALK Active, ALK(L1196M) Active, ALK(G1202R) Active, and ALK(G1202R/L1196M) Active were purchased from Carna; SRC Substrate was purchased from SignalChem; IGF1R tide was purchased from SignalChem; ADP-Glo Kinase Assay was purchased from Promega; Kinase assay buffer III was purchased from SignalChem; and Nivo multimode plate reader (PerkinElmer).
(§8) Each concentration of the compounds was further diluted 20-fold using 1X kinase buffer to prepare compound working solutions containing 5% DMSO. 1 µL of each concentration gradient working solution was added to a microplate, with duplicate wells set for each concentration. 2 µL of ALK enzyme (15 ng per well) and 2 µL of a mixture of substrate and ATP (25 µM ATP, 0.5 µg/µL SRC Substrate) were added to the microplate. […] The reaction system was placed at 25°C for 1 hour. After the reaction, 5 µL of ADP-Glo reagent was added to each well and reacted at 25°C for another 40 minutes. After the reaction, 10 µL of kinase detection reagent was added to each well and reacted at 25°C for 30 minutes. Chemiluminescence was then measured using the PerkinElmer Nivo multimode plate reader with an integration time of 0.5 seconds.
ALK (G1202R/L1196M) kinase inhibition assay method: The preparation method for the working solution of the test compound was the same as for the ALK kinase. […] The subsequent steps were the same as for ALK kinase.
as §4
Background: ADP-Glo first removes unused ATP, then detects ADP through luciferase.

Data set [6] concerns the target T2, TRKB. Described as above. The settings on record: read-out: Kinase half maximal inhibitory concentration IC50 TRKB. Type of data set: biochemical. As to the method: as §1, §7, §8
TRKB kinase inhibition assay method: The preparation method for the working solution of the test compound was the same as for the ALK kinase. 2 µL of TRKB (0.5 ng per well) and 4 µL of a mixture of substrate and ATP (5 µM ATP, 0.5 µM SRC Substrate) were added to the microplate. […] The subsequent steps were the same as for ALK kinase.
as §4

For another data set, the target named is T3, ALK(G1202R) (Homo sapiens, UniProt Q9UM73, G1202R).
T3 construct: purchased Carna
The data set is described as above. Type of data set: biochemical. The settings on record: final ATP 50 µM, read-out: Kinase half maximal inhibitory concentration IC50 ALK^G1202R. The method, then:
as §1, §7, §8
ALK (G1202R) kinase inhibition assay method: The preparation method for the working solution of the test compound was the same as for the ALK kinase. […] The subsequent steps were the same as for ALK kinase.
as §4

For the next data set, the target named is ROS1 (Homo sapiens, UniProt P08922). The description is as above. Type of data set: biochemical. The settings on record: read-out: Kinase half maximal inhibitory concentration IC50 ROS1. The method, then: as §1, §7
as §8, with “After the reaction, 10 µL of kinase detection reagent was added to each well and reacted at 25°C for 30 minutes.” left out, “seconds. […]” for “seconds.”

The target in another data set is T4, ALK (Homo sapiens, UniProt Q9UM73).
T4 construct: purchased Carna
The data set is described as above. It is filed as biochemical. The settings on record: final ATP 10 µM, read-out: Kinase half maximal inhibitory concentration IC50 ALK. As to the method:
as §1, §7
as §8, with “After the reaction, 10 µL of kinase detection reagent was added to each well and reacted at 25°C for 30 minutes.” left out, “seconds. […]” for “seconds.”

The next data set addresses T5, ALK(L1196M) (Homo sapiens, UniProt Q9UM73, L1196M).
T5 construct: purchased Carna
The data set is described as above. Type of data set: biochemical. The settings on record: final ATP 50 µM, read-out: Kinase half maximal inhibitory concentration IC50 ALK^L1196M. As to the method:
as §1, §7
as §8, with “After the reaction, 10 µL of kinase detection reagent was added to each well and reacted at 25°C for 30 minutes.” left out, “seconds. […]” for “seconds.”

T1 sequence (Q9UM73 19-1620 L1196M/G1202R): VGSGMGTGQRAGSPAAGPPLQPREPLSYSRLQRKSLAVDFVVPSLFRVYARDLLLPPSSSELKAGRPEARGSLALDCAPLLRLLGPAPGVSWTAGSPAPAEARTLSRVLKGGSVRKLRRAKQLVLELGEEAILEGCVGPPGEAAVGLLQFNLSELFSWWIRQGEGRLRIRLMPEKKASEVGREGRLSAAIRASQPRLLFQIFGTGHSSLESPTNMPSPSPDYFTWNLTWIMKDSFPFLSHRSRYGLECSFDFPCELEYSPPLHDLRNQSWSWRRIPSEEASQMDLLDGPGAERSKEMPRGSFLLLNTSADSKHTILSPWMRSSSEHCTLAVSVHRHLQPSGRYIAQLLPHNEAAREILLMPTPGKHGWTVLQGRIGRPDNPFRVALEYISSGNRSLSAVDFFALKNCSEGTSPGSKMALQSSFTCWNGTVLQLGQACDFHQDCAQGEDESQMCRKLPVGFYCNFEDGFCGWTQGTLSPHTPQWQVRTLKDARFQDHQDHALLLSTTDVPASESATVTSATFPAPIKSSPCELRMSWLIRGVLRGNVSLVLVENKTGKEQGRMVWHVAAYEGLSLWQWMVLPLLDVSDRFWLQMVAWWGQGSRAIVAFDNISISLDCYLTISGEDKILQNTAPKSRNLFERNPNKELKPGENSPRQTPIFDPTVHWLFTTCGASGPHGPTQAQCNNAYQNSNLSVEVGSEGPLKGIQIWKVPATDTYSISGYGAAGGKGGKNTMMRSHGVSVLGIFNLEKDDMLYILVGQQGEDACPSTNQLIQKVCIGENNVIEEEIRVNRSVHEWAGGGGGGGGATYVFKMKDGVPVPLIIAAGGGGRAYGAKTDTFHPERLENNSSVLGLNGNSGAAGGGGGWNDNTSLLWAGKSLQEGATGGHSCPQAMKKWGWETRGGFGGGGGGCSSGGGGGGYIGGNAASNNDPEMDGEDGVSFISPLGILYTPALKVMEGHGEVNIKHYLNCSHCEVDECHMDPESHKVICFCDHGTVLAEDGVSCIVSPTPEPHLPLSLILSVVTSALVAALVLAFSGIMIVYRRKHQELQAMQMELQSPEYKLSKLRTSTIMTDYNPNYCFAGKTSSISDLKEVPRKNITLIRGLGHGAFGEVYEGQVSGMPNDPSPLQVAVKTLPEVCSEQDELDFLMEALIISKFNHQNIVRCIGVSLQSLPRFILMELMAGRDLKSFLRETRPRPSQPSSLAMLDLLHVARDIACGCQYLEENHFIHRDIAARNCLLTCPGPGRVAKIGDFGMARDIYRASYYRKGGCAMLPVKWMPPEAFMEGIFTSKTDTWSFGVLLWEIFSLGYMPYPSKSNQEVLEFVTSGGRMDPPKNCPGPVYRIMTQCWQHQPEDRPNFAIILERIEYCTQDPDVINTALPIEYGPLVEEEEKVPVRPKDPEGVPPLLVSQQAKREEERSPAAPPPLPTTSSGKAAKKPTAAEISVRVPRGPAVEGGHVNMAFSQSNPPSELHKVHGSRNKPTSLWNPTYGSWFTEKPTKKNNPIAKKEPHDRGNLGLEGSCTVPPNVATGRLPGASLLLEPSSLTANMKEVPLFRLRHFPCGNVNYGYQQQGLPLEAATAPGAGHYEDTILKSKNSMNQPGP
T2 sequence (Q16620 32-822): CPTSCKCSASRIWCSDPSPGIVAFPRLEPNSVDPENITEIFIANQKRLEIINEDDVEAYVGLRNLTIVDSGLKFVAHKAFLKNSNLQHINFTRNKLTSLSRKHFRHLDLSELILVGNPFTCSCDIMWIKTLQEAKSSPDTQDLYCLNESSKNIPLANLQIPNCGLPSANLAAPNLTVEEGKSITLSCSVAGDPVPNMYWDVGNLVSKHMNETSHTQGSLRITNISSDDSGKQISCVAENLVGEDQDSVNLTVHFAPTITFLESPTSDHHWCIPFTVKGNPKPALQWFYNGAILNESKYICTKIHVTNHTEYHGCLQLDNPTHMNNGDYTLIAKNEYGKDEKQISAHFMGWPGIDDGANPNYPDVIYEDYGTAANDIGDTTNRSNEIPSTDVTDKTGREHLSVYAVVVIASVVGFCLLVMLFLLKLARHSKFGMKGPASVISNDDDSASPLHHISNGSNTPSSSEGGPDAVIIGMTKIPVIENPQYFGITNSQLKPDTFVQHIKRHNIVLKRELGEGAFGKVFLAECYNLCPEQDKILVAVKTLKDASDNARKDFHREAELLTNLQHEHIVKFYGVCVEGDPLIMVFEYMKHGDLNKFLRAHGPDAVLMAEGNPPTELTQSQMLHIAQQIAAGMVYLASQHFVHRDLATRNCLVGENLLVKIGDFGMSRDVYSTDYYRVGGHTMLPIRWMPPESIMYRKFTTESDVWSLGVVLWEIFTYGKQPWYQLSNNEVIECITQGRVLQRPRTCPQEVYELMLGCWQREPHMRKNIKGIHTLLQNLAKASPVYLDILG
T3 sequence (Q9UM73 19-1620 G1202R): as the sequence (Q9UM73 19-1620 L1196M/G1202R) above, with M1178L counted along it
Chain of ROS1 (P08922 28-2347): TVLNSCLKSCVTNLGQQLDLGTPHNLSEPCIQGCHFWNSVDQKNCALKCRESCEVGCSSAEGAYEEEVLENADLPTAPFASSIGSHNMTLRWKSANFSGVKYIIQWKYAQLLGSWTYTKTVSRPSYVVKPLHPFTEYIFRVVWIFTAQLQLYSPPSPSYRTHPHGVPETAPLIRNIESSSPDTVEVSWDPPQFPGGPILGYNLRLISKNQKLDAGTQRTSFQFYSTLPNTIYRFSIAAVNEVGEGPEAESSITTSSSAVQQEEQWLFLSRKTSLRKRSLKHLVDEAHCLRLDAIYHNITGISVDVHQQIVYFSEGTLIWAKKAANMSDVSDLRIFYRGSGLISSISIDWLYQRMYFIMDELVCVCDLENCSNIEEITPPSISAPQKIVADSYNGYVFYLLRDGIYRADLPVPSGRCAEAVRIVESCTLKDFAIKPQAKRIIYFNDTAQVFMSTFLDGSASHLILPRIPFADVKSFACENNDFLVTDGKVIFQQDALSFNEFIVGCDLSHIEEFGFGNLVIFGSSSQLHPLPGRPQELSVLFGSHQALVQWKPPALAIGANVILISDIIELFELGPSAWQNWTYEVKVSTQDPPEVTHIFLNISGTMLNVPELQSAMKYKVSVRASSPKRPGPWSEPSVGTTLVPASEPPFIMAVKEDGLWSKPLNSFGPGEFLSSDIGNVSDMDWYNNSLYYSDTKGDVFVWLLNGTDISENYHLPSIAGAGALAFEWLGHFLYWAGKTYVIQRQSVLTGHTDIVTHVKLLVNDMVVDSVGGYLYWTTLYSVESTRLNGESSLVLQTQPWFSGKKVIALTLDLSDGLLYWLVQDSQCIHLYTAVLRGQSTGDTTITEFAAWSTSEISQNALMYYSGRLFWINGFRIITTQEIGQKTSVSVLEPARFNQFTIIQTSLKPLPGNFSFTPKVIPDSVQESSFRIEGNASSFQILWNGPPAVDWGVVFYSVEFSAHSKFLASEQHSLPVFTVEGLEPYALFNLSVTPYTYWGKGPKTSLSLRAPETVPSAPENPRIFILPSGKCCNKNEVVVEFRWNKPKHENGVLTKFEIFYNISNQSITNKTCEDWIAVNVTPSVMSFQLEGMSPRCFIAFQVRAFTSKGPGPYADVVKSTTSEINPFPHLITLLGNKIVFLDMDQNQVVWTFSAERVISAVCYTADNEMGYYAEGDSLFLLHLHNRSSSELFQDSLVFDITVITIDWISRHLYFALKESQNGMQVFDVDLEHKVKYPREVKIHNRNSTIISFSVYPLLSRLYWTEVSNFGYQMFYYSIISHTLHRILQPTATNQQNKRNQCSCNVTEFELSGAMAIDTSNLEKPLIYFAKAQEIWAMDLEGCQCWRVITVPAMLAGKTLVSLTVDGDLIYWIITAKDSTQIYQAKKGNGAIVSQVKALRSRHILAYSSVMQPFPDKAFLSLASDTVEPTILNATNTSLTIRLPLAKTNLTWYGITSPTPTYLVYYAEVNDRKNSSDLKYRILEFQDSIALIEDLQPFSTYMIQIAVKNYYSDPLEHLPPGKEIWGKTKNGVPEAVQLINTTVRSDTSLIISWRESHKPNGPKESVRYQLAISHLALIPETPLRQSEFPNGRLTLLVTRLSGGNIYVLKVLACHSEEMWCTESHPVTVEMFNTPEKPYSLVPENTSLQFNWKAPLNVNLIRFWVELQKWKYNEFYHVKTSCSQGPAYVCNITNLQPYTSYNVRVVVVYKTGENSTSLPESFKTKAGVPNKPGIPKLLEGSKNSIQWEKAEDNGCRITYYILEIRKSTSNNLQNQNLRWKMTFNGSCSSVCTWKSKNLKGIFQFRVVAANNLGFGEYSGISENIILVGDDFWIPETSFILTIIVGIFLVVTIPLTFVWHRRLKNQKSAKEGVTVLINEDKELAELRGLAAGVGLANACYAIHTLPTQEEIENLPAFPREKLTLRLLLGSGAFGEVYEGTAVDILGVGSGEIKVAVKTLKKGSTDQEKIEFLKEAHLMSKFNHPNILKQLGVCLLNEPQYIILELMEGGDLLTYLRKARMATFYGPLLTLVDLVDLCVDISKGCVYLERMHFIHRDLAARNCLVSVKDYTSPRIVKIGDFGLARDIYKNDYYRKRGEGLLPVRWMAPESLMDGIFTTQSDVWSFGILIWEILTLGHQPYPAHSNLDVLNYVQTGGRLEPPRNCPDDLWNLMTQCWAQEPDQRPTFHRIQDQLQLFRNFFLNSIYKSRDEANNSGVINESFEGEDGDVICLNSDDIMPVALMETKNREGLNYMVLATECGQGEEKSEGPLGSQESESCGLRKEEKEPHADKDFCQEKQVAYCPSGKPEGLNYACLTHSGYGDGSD
T5 sequence (Q9UM73 19-1620 L1196M): as the sequence (Q9UM73 19-1620 L1196M/G1202R) above, with R1184G counted along it
T4 sequence (Q9UM73 19-1620): as the sequence (Q9UM73 19-1620 L1196M/G1202R) above, with M1178L, R1184G counted along it

For orientation: CLint scaled means the capacity of the preparation to metabolise the compound, expressed as a volume cleared per time. High values mean rapid turnover, low ones slow turnover. On to `CC#Cc1nn2cc3c4nc2c1C(=O)NC(C)(C)COc1ccc(F)cc1CN4[C@H](C(F)F)CO3` [Compound 018], for which the IC50 was 0.7 nM at ALK(G1202R/L1196M) [1]; 4.9 nM on TRKB [2]; 1.1 nM in [3] (Ba/F3 EML4-ALK-G1202R-L1196M, 72 hours, read-out: Half maximal inhibitory concentration IC50 for cells Ba/F3-EML4-ALK-G1202R/L1196 M); 6.9 nM in the data set on Ba/F3-TEL-TRKB. Also, the “selectivity: inhibition against ALK-mutant cells versus TRKB phenotypic cells” value in data set [3] (stronger inhibition of ALK-mutant cells, relatively weaker of TRKB phenotypic cells) is “excellent selectivity”. The values for the intrinsic clearance (CLint scaled) in data set [4] (Human hepatocytes) and in [4] (Mouse hepatocytes) were < 17.8 mL/min/kg and 291 mL/min/kg, respectively.
For `CON=C1NC(C)(C)COc2ncc(F)cc2CN2c3nc4c1cnn4cc3OC[C@H]2C(F)F` [Compound 005], the IC50 is 5.2 nM at ALK(G1202R/L1196M) [5], 1.2 nM at TRKB [6], 3.8 nM at ALK(G1202R) and 0.6 nM at ROS1.
Turning to `CON=C1NC(C)(C)COc2ccc(F)cc2CN2c3nc4c1cnn4cc3OC[C@H]2C(F)F` [Compound 001], the IC50 at ALK(G1202R/L1196M) [5] was determined as 12.4 nM; on TRKB [6] it was 2.2 nM; on ALK it was 22.2 nM; on ALK(L1196M), 12.8 nM; at ALK(G1202R), 16.9 nM; on ROS1, 17.3 nM.

Source of the values: EP4559919A1, “TRICYCLIC-CONTAINING MACROCYCLIC COMPOUND AND USE THEREOF” (Medshine Discovery Inc., priority 2022, dated 2024).
